What was measured:
Format in all cases: cell-based
[1] = biological target: T1, human muscarinic M2 receptor (Homo sapiens, UniProt P08172); assay: Alphascreen Surefire phospho-ERK1/2 functional assay, M2; details: for EC50: CHO cells stably expressing human M2, agonist 5 min, 37° C., read-out: pEC50 M2 (converted); for Emax: CHO, read-out: % Emax cf. ACh, M2, CHO cells stably expressing human M2, Emax relative to ACh
T1 sequence (P08172 1-466): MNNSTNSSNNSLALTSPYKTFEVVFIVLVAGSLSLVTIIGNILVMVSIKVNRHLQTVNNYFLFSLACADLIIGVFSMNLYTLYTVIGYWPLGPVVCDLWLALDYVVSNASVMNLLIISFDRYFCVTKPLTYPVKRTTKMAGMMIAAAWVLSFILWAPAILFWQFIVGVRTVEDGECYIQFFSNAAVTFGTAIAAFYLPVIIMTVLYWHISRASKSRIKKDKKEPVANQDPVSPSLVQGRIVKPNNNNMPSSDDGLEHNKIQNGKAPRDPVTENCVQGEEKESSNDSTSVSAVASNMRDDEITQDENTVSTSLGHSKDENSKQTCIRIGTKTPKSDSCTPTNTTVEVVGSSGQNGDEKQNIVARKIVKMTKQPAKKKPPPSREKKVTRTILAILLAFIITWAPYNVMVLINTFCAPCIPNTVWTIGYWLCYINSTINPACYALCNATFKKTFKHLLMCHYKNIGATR
Description: (§1) ERK1/2 phosphorylation is a downstream consequence of both Gq/11 and Gi/o protein coupled receptor activation, making it highly suitable for the assessment of M1, M3 (Gq/11 coupled) and M2, M4 receptors (Gi/o coupled), rather than using different assay formats for different receptor subtypes. CHO cells stably expressing the human muscarinic M1, M2, M3 or M4 receptor were plated (25K/well) onto 96-well tissue culture plates in MEM-alpha+10% dialysed FBS. Once adhered, cells were serum-starved overnight. Agonist stimulation was performed by the addition of 5 μL agonist to the cells for 5 min (37° C.). Media was removed and 50 μL of lysis buffer added. After […], a 4 μL sample was transferred to 384-well plate and 7 μL of detection mixture added.
(§2) Isomer assignment (Isomer 1, Isomer 2, etc.) is based on the retention time of the compound using the separation technique that was performed in the final purification step. By implication, this could be reversed phase HPLC, chiral HPLC or chiral SFC retention time, and this will vary from compound to compound.

[2] = biological target: T2, human muscarinic M1 receptor (Homo sapiens, UniProt P11229); assay: Alphascreen Surefire phospho-ERK1/2 functional assay, M1; details: for % Emax cf. ACh, M1 / EC50: CHO cells stably expressing human M1; for % Emax cf. ACh, M1 / Emax: Emax relative to ACh; for EC50: agonist 5 min, 37° C., read-out: pEC50 M1 (converted); for Emax: CHO, read-out: % Emax cf. ACh, M1, CHO cells stably expressing human M1
T2 sequence (P11229 1-460): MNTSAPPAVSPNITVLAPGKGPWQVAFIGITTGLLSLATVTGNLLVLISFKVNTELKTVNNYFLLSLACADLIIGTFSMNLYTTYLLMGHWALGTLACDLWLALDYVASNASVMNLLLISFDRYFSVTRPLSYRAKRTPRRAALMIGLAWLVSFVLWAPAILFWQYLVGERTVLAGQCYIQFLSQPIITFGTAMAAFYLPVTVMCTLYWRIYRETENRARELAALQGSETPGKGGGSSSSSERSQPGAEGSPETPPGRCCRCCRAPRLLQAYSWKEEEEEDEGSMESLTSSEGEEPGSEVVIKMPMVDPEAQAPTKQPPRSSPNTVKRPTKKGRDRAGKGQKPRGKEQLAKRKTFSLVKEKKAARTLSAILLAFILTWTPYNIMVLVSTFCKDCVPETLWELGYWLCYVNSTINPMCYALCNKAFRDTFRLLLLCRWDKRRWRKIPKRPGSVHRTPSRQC
Description: as §1, §2

[3] = biological target: T3, human muscarinic M4 receptor (Homo sapiens, UniProt P08173); assay: Alphascreen Surefire phospho-ERK1/2 functional assay, M4; details: for % Emax cf. ACh, M4 / EC50: CHO cells stably expressing human M4; for % Emax cf. ACh, M4 / Emax: Emax relative to ACh; for EC50: agonist 5 min, 37° C., read-out: pEC50 M4 (converted); for Emax: CHO, read-out: % Emax cf. ACh, M4, CHO cells stably expressing human M4
T3 construct: expressed in transfected cells
T3 sequence (P08173 1-479): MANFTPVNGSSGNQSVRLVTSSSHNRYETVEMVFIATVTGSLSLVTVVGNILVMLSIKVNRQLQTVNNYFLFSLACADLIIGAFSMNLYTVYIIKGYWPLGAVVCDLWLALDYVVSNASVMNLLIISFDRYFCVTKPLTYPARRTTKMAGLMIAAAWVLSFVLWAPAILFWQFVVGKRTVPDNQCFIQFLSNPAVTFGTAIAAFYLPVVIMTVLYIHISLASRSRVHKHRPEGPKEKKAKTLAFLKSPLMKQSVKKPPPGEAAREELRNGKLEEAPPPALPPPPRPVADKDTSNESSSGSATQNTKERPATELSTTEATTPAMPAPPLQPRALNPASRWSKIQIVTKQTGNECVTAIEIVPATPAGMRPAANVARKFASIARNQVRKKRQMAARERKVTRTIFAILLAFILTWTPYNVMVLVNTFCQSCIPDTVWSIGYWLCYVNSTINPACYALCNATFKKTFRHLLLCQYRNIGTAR
Description: as §1, §2

[4] = biological target: T4, human muscarinic M3 receptor (Homo sapiens, UniProt P20309); assay: Alphascreen Surefire phospho-ERK1/2 functional assay, M3; details: for EC50: CHO cells stably expressing human M3, agonist 5 min, 37° C., read-out: pEC50 M3 (converted); for Emax: CHO, read-out: % Emax cf. ACh, M3, CHO cells stably expressing human M3, Emax relative to ACh
T4 construct: expressed in transfected cells
Description: as §1, §2

T4 sequence (P20309 whole entry): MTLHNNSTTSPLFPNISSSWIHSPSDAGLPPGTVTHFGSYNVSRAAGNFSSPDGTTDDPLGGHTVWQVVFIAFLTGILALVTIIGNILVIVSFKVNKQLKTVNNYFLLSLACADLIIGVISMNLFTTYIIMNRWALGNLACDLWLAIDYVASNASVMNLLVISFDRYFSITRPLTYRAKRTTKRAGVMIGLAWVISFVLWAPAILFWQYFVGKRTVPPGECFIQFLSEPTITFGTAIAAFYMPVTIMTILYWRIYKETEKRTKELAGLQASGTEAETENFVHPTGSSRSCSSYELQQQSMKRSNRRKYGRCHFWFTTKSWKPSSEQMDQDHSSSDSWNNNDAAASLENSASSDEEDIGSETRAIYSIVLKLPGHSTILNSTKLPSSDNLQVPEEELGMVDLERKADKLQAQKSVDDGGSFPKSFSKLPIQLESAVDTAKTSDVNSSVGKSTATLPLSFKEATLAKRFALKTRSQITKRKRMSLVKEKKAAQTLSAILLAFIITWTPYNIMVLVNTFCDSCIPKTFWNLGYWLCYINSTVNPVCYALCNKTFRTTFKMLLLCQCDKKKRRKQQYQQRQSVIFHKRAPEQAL

| EC50 [1] | Emax [1] | % Emax cf. ACh, M1 [2] | EC50 [2] | % Emax cf. ACh, M4 [3] | EC50 [3] | EC50 [4] | Emax [4] | Emax [2] | Emax [3] | % Emax cf. ACh, M1 ([2]; listed as 4-9 Isomer 1) | % Emax cf. ACh, M4 ([3]; listed as 4-9 Isomer 1) | SMILES |
| --- | --- | --- | --- | --- | --- | --- | --- | --- | --- | --- | --- | --- |
| > 20 µM | 9% | 93% | 214 nM | 32% | 339 nM | > 20 µM | 11% | – | – | – | – | CCN(CC)C(=O)OC1CN(C2CCC3(C2)CN(C(=O)OC)C3)C1 (single isomer, unassigned) [Example 4-6 Isomer 2, Methyl 6-(3-((diethylcarbamoyl)oxy)azetidin-1-yl)-2-azaspiro[3.4]octane-2-carboxylate] |
| > 20 µM | 7% | – | 75.9 nM | – | 49 nM | > 20 µM | 8% | 51% | 29% | – | – | CCOC(=O)N1CC2(CCC(N3CC(OC(=O)N4CCCC4)C3)C2)C1 (single isomer, unassigned) [Example 4-7 Isomer 1, Ethyl 6-(3-((pyrrolidine-1-carbonyl)oxy)azetidin-1-yl)-2-azaspiro[3.4]octane-2-carboxylate] |
| > 20 µM | 2% | – | 57.5 nM | – | > 20000 nM | > 20 µM | 4% | 72% | 14% | – | – | CCOC(=O)N1CC2(CCC(N3CC(OC(=O)N4CCOCC4)C3)C2)C1 (single isomer, unassigned) [Example 4-8 Isomer 1, 1-(2-(Ethoxycarbonyl)-2-azaspiro[3.4]octan-6-yl)azetidin-3-yl morpholine-4-carboxylate] |
| > 20 µM | 3% | – | 57.5 nM | – | > 20000 nM | > 20 µM | 2% | – | – | 37% | 7% | CCOC(=O)N1CC2(CCC(N3CC(OC(=O)N4CCCOCC4)C3)C2)C1 (single isomer, unassigned) [Example 4-9 Isomer 1, 1-(2-(Ethoxycarbonyl)-2-azaspiro[3.4]octan-6-yl)azetidin-3-yl 1,4-oxazepane-4-carboxylate] |
| > 20 µM | 9% | – | 117 nM | – | 490 nM | > 20 µM | 5% | 86% | 50% | – | – | CCOC(=O)N1CC2CCC1CC2N1CC(OC(=O)N2CCCCCC2)C1 (single isomer, unassigned) [Example 6-4 Isomer 1, Ethyl 5-(3-((azepane-1-carbonyl)oxy)azetidin-1-yl)-2-azabicyclo[2.2.2]octane-2-carboxylate] |

Reference: patent US11945801B2, “Bicyclic aza compounds as muscarinic M1 and/or M4 receptor agonists” (Heptares Therapeutics Limited, priority 2018, dated 2024)
